Measured values from patent US6635475B1, “Bacillus subtilis extracytoplasmic function σ factor” (Cornell Research Foundation, Inc., priority 1999, dated 2003).
Where a SMILES comes first, the peptide text is derived from it. Bridges are numbered along the chain shown (N, C = ends). [ ]: non-standard residue; d: D form. The star is where a group is joined. Ileψ(thiazoline)Cys = CC[C@H](C)[C@H](N)C1=N[C@H](C(=O)*)CS1; dOrn = NCCC[C@@H](N)C(=O)O

What follows are compounds tested on sigW mutant (assay: sigW mutant tested for increased sensitivity to chemical insults (zones of inhibition)). Details: sigW mutant strain tested for increased sensitivity to a variety of chemical insults.
Type: cell-based, Bacillus subtilis
From the text: Identification of members of the σ^W regulon allows prediction of the phenotypes likely to be associated with a sigW mutation. A sigW mutant strain is not grossly defective in any of the well-characterized processes associated with post-exponential phase, including sporulation, competence, and protein secretion. It has been previously reported that sigW transcription is not induced by a temperature shift from 37 to 50 degrees C. (Huang et al., 1998) and the same is true for the four tested members of the σ^W regulon (ydbS, yeaA, yxjI, ysdB). Since several members of the σ^W regulon encode enzymes with a predicted detoxification function (FIG. 3), a sigW mutant was tested for increased sensitivity to a variety of chemical insults.

Compound	differences in the zones of inhibition
O[C@H](CS)[C@H](O)CS (racemic) [dithiothreitol]	no differences
OCCS [2-mercaptoethanol]	no differences
O=C(O)CN(CCN(CC(=O)O)CC(=O)O)CC(=O)O [EDTA]	no differences
[Fe+3] [Fe^3+]	no differences
Cl [HCI]	no differences
[Mn+2] [Mn^2+]	no differences
[Na+].[OH-] [NAOH]	no differences
[Cl-].[Na+] [NaCl]	no differences
CC1(C)S[C@@H]2[C@H](NC(=O)[C@H](N)c3ccccc3)C(=O)N2[C@H]1C(=O)O [ampicillin]	no differences
CC[C@H](C)[C@H](N)C1=N[C@H](C(=O)N[C@@H](CC(C)C)C(=O)N[C@H](CCC(=O)O)C(=O)N[C@H](C(=O)N[C@H]2CCCCNC(=O)[C@H](CC(N)=O)NC(=O)[C@@H](CC(=O)O)NC(=O)[C@H](Cc3cnc[nH]3)NC(=O)[C@@H](Cc3ccccc3)NC(=O)[C@H]([C@@H](C)CC)NC(=O)[C@@H](CCCN)NC2=O)[C@@H](C)CC)CS1 [bacitracin] ({Ileψ(thiazoline)Cys}-L[dE]IK[dOrn]I[dF]H[dD]N; lactam 4-C)	no differences
O=C(N[C@H](CO)[C@H](O)c1ccc([N+](=O)[O-])cc1)C(Cl)Cl [chloramphenicol]	no differences
OO [hydrogen peroxide]	no differences
C[n+]1ccc(-c2cc[n+](C)cc2)cc1 [methyl viologen]	no differences
CCCCCCCCCCCCOS(=O)(=O)[O-].[Na+] [sodium dodecyl sulfate]	no differences
CN[C@@H]1[C@H](O)[C@H](NC)[C@H]2O[C@@]3(O)C(=O)C[C@@H](C)O[C@H]3O[C@@H]2[C@H]1O [spectinomycin]	no differences
gentamicin sulfate	no differences
lysozyme	no differences
neomycin	no differences
nisin	no differences
polymyxins	no differences
